Measurements from patent US6528274B1, “Method for the production of sialylated oligosaccharides” (priority 1998, dated 2003).

What was measured:
[1] = target: viral α2,3-sialyltransferase (Myxoma virus, UniProt Q9YJT3); assay type: biochemical; conditions: LacNAc-O-gr = 100; for Relative Rate (2.7 mM): acceptor 2.7 mM, relative rate of sialic acid transfer, 37° C., pH 6.1
Protocol: Acceptor (54 nmol), CMP-NANA (40 nmol), and CMP-^3H-NANA (150,000-180,000 dpm) were added to a mixture of cell lysate (16 μL), water (3 μL) and 1 μL of assay buffer (250 mM MES, 0.5% Triton CF54, pH 7.0) in a 0.5 mL microfuge tube. Reaction mixtures were incubated at 37° C., diluted with water to 200 μL and loaded onto a C18 Sep-Pak reverse-phase cartridge which had been pre-equilibrated with 20 mL of MeOH and 20 mL of water. The cartridge was washed with 50 mL of water and the product eluted with 4 mL of MeOH into a scintillation vial. The radioactivity of the MeOH eluates were quantitated by liquid scintillation in 10 mL of EcoLite (+) scintillation cocktail (ICN, Montreal, Quebec, Canada) in a Beckman liquid scintillation counter (LS1801).
Acceptor (54 nmol), CMP-NANA (40 nmol), and CMP-^3H-NANA (150,000-180,000 dpm) were added to a mixture of cell lysate (16 μL), water (3 μL) and assay buffer (250 mM MES, 0.5% Triton CF54, pH 6.1) in a 0.5 mL microfuge tube.

[2] = system: myxoma viral α2,3-sialyl transferase; assay: Transfer of sialic acid (CMP-3H-NANA) to Lewis a and Lewis x oligosaccharide acceptors by viral cell lysate, pH 7.0; assay type: biochemical, myxoma virus; conditions: acceptor 54 nmol, 37° C., duplicate experiments
Protocol: The myxoma viral α2,3-sialyl transferase cell lysate was prepared by a method similar to that set forth in International Patent Application Publication No. WO97/18302^65, which is incorporated herein by reference.
Ten T180 flasks of confluent layers of European rabbit kidney cell (RK13) cells were infected with Brazilian myxoma virus strain, Lausanne (Lu) (ATCC VR-115) isolated Campinas, Brazil, 1949 and Uriarra (Ur) isolated Australian Capital Territory, 1953 (a derivative of Moses strain (ATCC VR-116)). The cells were kept at 37° C. for 24 hours. Twenty-four hours post infection, the cells were detached by scraping and washed with PBS. Cell lysates were prepared by suspension in 20 mL of extraction buffer (50 mM MES, pH 6.1, 0.5% Triton-X100, 100 mM NaCl, 1.5 mM MgCl2, 0.1 mM PMSF, […] aprotinin) at 4° C., for 45 minutes. The lysate was clarified by centrifugation at 2,000 g at 4° C. for 15 minutes. […]
Acceptor (54 nmol), CMP-NANA (40 nmol), and CMP-^3H-NANA (150,000-180,000 dpm) were added to a mixture of cell lysate (16 μL), water (3 μL) and 1 μL of assay buffer (250 mM MES, 0.5% Triton CF54, pH 7.0) in a 0.5 mL microfuge tube. […] The radioactivity of the MeOH eluates were quantitated by liquid scintillation in 10 mL of EcoLite (+) scintillation cocktail (ICN, Montreal, Quebec, Canada) in a Beckman liquid scintillation counter (LS1801). […]

Row | SMILES | Relative Vmax [1] | Relative Rate (2.7 mM) [1] | dpm (radioactive transfer to acceptor) ([2]; Incubation time 90 min., total CMP-NANA 152644) | dpm (radioactive transfer to acceptor) ([2]; Incubation time 170 min., total CMP-NANA 176174)
1 | COC(=O)CCCCCCCCO[C@@H]1O[C@H](CO)[C@@H](O[C@@H]2O[C@H](CO)[C@H](O)[C@H](O)[C@H]2O)[C@H](O)[C@H]1NC(C)=O [LacNAc—O-gr] | 100 | 100 | – | –
2 | CC(=O)N[C@H]1C(O)O[C@H](CO)[C@@H](O[C@@H]2O[C@H](CO)[C@H](O)[C@H](O)[C@H]2O)[C@@H]1O (stereo partly drawn) [LacNAc-OH] | – | 171 | – | –
3 | COC(=O)CCCCCCCCOC1OC(CO)C(OC2OC(CO)C(O)C(OC3OC(CO)C(O)C(O)C3O)C2O)C(O)C1NC(C)=O (stereo not drawn) [Galα(1→3)-lacNAc-O-gr] | – | 18 | – | –
4 | CCCCCCCCO[C@@H]1O[C@H](CO)[C@@H](O[C@@H]2O[C@H](C(C)(C)O)[C@H](O)[C@H](O)[C@H]2O)[C@H](O)[C@H]1NC(C)=O [6′,6′-C-dimethyl-LacNAc-O-octyl] | – | 17 | – | –
5 | CCCCCCCCO[C@@H]1O[C@H](CO)[C@@H](O)[C@H](O)[C@H]1O [Glc-O-octyl] | – | <1 | – | –
6 | COC(=O)CCCCCCCCO[C@@H]1O[C@H](CO)[C@@H](O[C@@H]2O[C@H](CO)[C@H](O)[C@H](O)[C@H]2O)[C@H](O[C@@H]2O[C@@H](C)[C@@H](O)[C@@H](O)[C@@H]2O)[C@H]1NC(C)=O [Le^x-gr, 8-methoxycarbonyloctyl α-L-fucopyranosyl-(1→3)-[β-D-galactopyranosyl-(1→4)]-β-D-2-acetamide-2-deoxy-glucopyranoside] | 30 | 21 | 1330/1130 | –
7 | CCCCCCCCO[C@@H]1O[C@H](CO)[C@@H](O[C@@H]2O[C@H](CO)[C@H](O)[C@](C)(O)[C@H]2O)[C@H](O)[C@H]1O [3′-C-methyl-lactose-octyl] | – | 4.1 | – | –
8 | COC(=O)CCCCCCCCO[C@@H]1O[C@H](CO)[C@@H](O)[C@H](O[C@@H]2O[C@H](CO)[C@H](O)[C@H](O)[C@H]2O)[C@H]1NC(C)=O [Le^c-O-gr] | 90 | 79 | – | –
9 | OC[C@H]1O[C@H](Oc2ccccc2)[C@H](O)[C@@H](O)[C@H]1O [Gal-O-phenyl] | – | <1 | – | –
10 | COC(=O)CCCCCCCCO[C@@H]1O[C@H](CO)[C@@H](O[C@@H]2O[C@@H](C)[C@@H](O)[C@@H](O)[C@@H]2O)[C@H](O[C@@H]2O[C@H](CO)[C@H](O)[C@H](O)[C@H]2O)[C@H]1NC(C)=O [Le^a-gr, 8-methoxycarbonyloctyl β-D-galactopyranosyl-(1→3) [α-L-fucopyranosyl-(1→4)]-β-D-2-acetamide-2-deoxy-glucopyranoside] | 42 | 50 | – | 4161/4045
11 | COC(=O)CCCCCCCCO[C@H]1O[C@H](CO)[C@H](O)[C@H](O[C@@H]2O[C@H](CO)[C@H](O)[C@H](O)[C@H]2O)[C@H]1NC(C)=O [T-disaccharide-O-gr] | 51 | 64 | – | –
12 | CCCCCCCCO[C@@H]1O[C@H](CO)[C@@H](O[C@@H]2O[C@H](CO)[C@](C)(O)[C@H](O)[C@H]2O)[C@H](O)[C@H]1O [4′-C-methyl-lactose-octyl] | – | 20 | – | –
13 | COC(=O)CCCCCCCCO[C@@H]1O[C@H](CO)[C@@H](O[C@@H]2O[C@H](CO)[C@H](O[C@H]3O[C@H](CO)[C@H](O)[C@H](O)[C@H]3O)[C@H](O)[C@H]2O)[C@H](O)[C@H]1O [Galα(1→4)-lactose-O-gr] | 17 | 12 | – | –
14 | COC(=O)CCCCCCCCO[C@@H]1O[C@H](CO)[C@@H](O[C@@H]2O[C@H](CO)[C@H](O)[C@H](O)[C@H]2O)[C@H](O)[C@H]1O [Lactose-O-gr] | 112 | 90 | – | –
15 | COC(=O)CCCCCCCCOC1OC(CO)C(O)C(O)C1NC(C)=O (stereo not drawn) [GlcNAc-O-gr] | – | <1 | – | –
